The target of this assay is T1, WT LRRK2 (Homo sapiens, UniProt Q5S007).
T1 construct: endogenous in cells; host or cells: HEK293 (endogenous LRRK2 gene knock-in tagged with HiBit; stably expressing CMV-driven firefly luciferase)
Nature of the assay: LRRK2 HiBit degradation assay (Nano-Glo Dual Luciferase) in HEK293 cells with HiBit-tagged endogenous LRRK2. Format: cell-based. A digest of the protocol: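 HEK293 cells carrying endogenous C-terminally HiBit-tagged LRRK2 and stably expressing CMV-driven firefly luciferase were treated for 24 h at 37° C with an 11-point 1:3 series from a 1 μM final top concentration. Nano-Glo Dual Luciferase read LRRK2-HiBit against firefly signal. Alamar Blue gave viability, and signals were normalized to DMSO median before curve fitting.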

[1] abbreviates: HEK293, Table 2, maximal degradation, HiBit-tagged LRRK2 in HEK293 cells, 24 hours treatment.
The mark [2] stands for this setting: HEK293, Table 3, comparison with direct comparators, maximal degradation.
The mark [3] stands for this setting: Table 2, HiBit-tagged LRRK2 in HEK293 cells, 24 hours treatment, starting concentration 1 μM.
[4] abbreviates: Table 3, comparison with direct comparators, HiBit-tagged LRRK2 in HEK293 cells, 24 hours treatment.
Where [5] appears, read: Table 2, maximal degradation, HiBit-tagged LRRK2 in HEK293 cells, 24 hours treatment.

One may read the Dmax as the largest share of the target that was removed. In general, DC50 refers to the midpoint of the concentration-degradation curve. The low end stands for a more potent degrader, the high end for a less potent degrader.

T1 sequence (Q5S007 whole entry): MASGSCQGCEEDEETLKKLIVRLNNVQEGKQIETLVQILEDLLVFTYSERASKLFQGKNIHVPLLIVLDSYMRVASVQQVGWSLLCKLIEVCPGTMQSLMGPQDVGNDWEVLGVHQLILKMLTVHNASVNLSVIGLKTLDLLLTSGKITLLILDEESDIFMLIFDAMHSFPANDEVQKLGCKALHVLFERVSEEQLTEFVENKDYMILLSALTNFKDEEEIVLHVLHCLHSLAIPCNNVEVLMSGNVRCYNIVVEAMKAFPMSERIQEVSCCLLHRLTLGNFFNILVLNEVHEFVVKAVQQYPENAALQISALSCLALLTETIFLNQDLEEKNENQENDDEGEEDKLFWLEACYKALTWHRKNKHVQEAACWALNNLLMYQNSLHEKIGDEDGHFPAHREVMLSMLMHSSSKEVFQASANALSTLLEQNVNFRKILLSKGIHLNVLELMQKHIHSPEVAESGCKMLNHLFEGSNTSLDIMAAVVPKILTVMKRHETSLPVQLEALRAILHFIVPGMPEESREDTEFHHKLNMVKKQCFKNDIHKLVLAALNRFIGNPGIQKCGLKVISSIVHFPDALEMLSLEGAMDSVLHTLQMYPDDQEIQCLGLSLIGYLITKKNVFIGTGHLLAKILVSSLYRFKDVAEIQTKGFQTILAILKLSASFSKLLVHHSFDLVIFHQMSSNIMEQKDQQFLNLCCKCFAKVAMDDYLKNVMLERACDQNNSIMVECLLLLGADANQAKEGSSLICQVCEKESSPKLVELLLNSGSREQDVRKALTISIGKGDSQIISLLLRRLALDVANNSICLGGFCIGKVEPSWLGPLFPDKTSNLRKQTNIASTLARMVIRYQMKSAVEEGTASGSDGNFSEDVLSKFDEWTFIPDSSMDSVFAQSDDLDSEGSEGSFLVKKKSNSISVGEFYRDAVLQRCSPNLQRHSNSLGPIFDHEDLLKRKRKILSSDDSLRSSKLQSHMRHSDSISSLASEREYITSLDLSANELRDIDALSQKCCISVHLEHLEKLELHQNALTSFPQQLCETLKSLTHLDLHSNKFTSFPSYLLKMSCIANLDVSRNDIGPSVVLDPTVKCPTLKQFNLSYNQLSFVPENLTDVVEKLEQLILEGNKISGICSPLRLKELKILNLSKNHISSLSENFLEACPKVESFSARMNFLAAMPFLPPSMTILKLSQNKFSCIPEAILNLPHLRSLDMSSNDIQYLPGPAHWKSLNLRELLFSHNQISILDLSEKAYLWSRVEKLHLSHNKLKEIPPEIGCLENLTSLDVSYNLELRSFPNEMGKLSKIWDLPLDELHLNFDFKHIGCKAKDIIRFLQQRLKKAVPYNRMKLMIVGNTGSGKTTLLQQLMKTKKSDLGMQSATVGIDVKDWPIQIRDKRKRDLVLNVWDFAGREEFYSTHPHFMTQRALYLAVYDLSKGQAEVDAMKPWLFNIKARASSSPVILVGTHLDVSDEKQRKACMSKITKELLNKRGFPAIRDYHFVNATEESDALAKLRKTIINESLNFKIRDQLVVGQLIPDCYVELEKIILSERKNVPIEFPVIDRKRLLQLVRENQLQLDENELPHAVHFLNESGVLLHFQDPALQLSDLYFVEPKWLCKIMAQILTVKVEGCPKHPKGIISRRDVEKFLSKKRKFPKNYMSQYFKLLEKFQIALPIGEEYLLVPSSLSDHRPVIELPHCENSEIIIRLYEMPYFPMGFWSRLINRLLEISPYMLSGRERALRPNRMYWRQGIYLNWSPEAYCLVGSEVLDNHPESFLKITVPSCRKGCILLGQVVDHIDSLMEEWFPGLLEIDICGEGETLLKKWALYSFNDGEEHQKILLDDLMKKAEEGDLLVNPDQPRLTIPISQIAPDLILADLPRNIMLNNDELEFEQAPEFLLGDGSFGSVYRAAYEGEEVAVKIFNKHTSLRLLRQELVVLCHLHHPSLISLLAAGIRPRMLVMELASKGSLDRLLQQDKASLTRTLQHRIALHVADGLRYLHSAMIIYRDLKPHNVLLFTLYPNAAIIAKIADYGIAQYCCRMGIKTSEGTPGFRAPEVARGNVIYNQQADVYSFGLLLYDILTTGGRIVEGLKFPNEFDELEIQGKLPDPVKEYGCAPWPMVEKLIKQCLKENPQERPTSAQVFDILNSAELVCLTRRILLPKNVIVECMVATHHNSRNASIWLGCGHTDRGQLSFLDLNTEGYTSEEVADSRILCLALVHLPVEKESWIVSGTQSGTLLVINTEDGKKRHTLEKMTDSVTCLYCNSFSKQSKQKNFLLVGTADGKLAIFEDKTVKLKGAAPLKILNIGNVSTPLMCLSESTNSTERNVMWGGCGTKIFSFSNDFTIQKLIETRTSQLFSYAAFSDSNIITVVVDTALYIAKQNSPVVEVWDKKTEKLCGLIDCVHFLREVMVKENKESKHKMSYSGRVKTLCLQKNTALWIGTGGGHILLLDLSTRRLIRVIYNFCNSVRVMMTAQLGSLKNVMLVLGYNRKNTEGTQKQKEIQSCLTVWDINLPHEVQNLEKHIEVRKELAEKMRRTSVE

Turning to `Cn1c(=O)n(C2CCC(=O)NC2=O)c2cccc(N3CCC(CN4CCN(CC5CCN(c6cc(-c7n[nH]c8ccc(OC9(C)CC9)cc78)ncn6)CC5)CC4)CC3)c21` (centres unmarked) [Compound 15, 3-{3-methyl-4-[4-({4-[(1-{6-[5-(1-methylcyclopropoxy)-1H-indazol-3-yl]pyrimidin-4-yl}piperidin-4-yl)methyl]piperazin-1-yl}methyl)piperidin-1-yl]-2-oxo-2,3-dihydro-1H-1,3-benzodiazol-1-yl}piperidine-2,6-dione], the Dmax is, setting by setting: under setting [1], 59%; under setting [2], 59%. For the same compound, the DC50 by setting is: under setting [3], 1500 pM; under setting [4], 1500 pM.

As to `Cn1c(=O)n(C2CCC(=O)NC2=O)c2ccc(N3CCC(O[C@H]4C[C@H](OC5CCN(c6cc(-c7n[nH]c8cnc(OC9(C)CC9)cc78)ncn6)CC5)C4)CC3)cc21` (single isomer, unassigned) [Compound 30, rel-3-(3-methyl-2-oxo-5-{4-[(1r,3r)-3-[(1-{6-[5-(1-methylcyclopropoxy)-1H-pyrazolo[3,4-c]pyridin-3-yl]pyrimidin-4-yl}piperidin-4-yl)oxy]cyclobutoxy]piperidin-1-yl}-2,3-dihydro-1H-1,3-benzodiazol-1-yl)piperidine-2,6-dione], the half-maximal degradation concentration (DC50) under setting [3] was 65 pM. Under setting [5], the Dmax was 48%.

Under setting [3], `Cn1c(=O)n(C2CCC(=O)NC2=O)c2ccc(N3CCC(OC[C@H]4C[C@H](OC5CCN(c6cc(-c7n[nH]c8ccc(OC9(C)CC9)cc78)ncn6)CC5)C4)CC3)cc21` (single isomer, unassigned) [Compound 33, rel-3-[3-methyl-2-oxo-5-(4-{[(1r,3r)-3-[(1-{6-[5-(1-methylcyclopropoxy)-1H-indazol-3-yl]pyrimidin-4-yl}piperidin-4-yl)oxy]cyclobutyl]methoxy}piperidin-1-yl)-2,3-dihydro-1H-1,3-benzodiazol-1-yl]piperidine-2,6-dione] gave a DC50 of 140 pM. This compound displayed a Dmax under setting [5] of 62%.

Under setting [1], `Cn1c(=O)n(C2CCC(=O)NC2=O)c2ccc(N3CCC(O[C@H]4CC[C@H](CN5CCN(c6cc(-c7n[nH]c8ccc(C9(C#N)CCC9)cc78)ncn6)CC5)CC4)CC3)cc21` (single isomer, unassigned) [Compound 62, rel-1-{3-[6-(4-{[(1r,4r)-4-({1-[1-(2,6-dioxopiperidin-3-yl)-3-methyl-2-oxo-2,3-dihydro-1H-1,3-benzodiazol-5-yl]piperidin-4-yl}oxy)cyclohexyl]methyl}piperazin-1-yl)pyrimidin-4-yl]-1H-indazol-5-yl}cyclobutane-1-carbonitrile] displayed a Dmax of 54%. The same compound returned a DC50 under setting [3] of 300 pM.

In turn, `Cn1c(=O)n(C2CCC(=O)NC2=O)c2cccc(C#CCOC3CCN(CC4CCN(c5cc(-c6n[nH]c7ccc(OC8(C)CC8)cc67)ncn5)CC4)CC3)c21` (centres unmarked) [Compound 18, 3-{3-methyl-4-[3-({1-[(1-{6-[5-(1-methylcyclopropoxy)-1H-indazol-3-yl]pyrimidin-4-yl}piperidin-4-yl)methyl]piperidin-4-yl}oxy)prop-1-yn-1-yl]-2-oxo-2,3-dihydro-1H-1,3-benzodiazol-1-yl}piperidine-2,6-dione] gave a Dmax under setting [1] of 74%. Under setting [3], half-maximal degradation (DC50) was put at 3900 pM.

Turning to `COc1c(N2CCC(O[C@H]3CC[C@H](CN4CCN(c5cc(-c6[nH]nc7ccc(OC8(C)CC8)cc67)ncn5)CC4)CC3)CC2)ccc2c1CN(C1CCC(=O)NC1=O)C2=O` (some centres unmarked) [Comparative Example 2, reference compound], the Dmax under setting [2] came out at 62%. Under setting [4], this compound yielded a DC50 of 3000 pM.

The compound `CC(C)n1c(=O)n(C2CCC(=O)NC2=O)c2ccc(N3CCC(O[C@H]4CC[C@@H](CN5CCN(c6cc(-c7n[nH]c8cnc(OC9(C)CC9)cc78)ncn6)CC5)CC4)CC3)cc21` (single isomer, unassigned) [Compound 53, rel-3-[2-oxo-3-(propan-2-yl)-5-(4-{[(1r,4r)-4-[(4-{6-[5-(1-methylcyclopropoxy)-1H-pyrazolo[3,4-c]pyridin-3-yl]pyrimidin-4-yl}piperazin-1-yl)methyl]cyclohexyl]oxy}piperidin-1-yl)-2,3-dihydro-1H-1,3-benzodiazol-1-yl]piperidine-2,6-dione] yielded a Dmax under setting [1] of 54%. Under setting [3], this compound came in with a DC50 of 590 pM.

Under setting [3], `Cn1c(=O)n(C2CCC(=O)NC2=O)c2ccc(N3CCC(OC4CCC(OC5CCN(c6cc(-c7n[nH]c8cnc(OC9(C)CC9)cc78)ncn6)CC5)CC4)CC3)cc21` (stereo not drawn) [Compound 25, rel-3-[3-methyl-2-oxo-5-(4-{[(1r,4r)-4-[(1-{6-[5-(1-methylcyclopropoxy)-1H-pyrazolo[3,4-c]pyridin-3-yl]pyrimidin-4-yl}piperidin-4-yl)oxy]cyclohexyl]oxy}piperidin-1-yl)-2,3-dihydro-1H-1,3-benzodiazol-1-yl]piperidine-2,6-dione] showed a 50% degradation concentration (DC50) of 320 pM. In addition, under setting [5], the “WT LRRK2 **Dmax (%)” value is 48%.

As to `CC1(Oc2ccc3[nH]nc(-c4cc(N5CCN(C[C@H]6CC[C@H](OC7CCN(c8cc(F)c9c(c8)ncn9C8CCC(=O)NC8=O)CC7)CC6)CC5)ncn4)c3c2)CC1` (stereo partly drawn) [Compound 43, rel-3-[7-fluoro-5-(4-{[(1r,4r)-4-[(4-{6-[5-(1-methylcyclopropoxy)-1H-indazol-3-yl]pyrimidin-4-yl}piperazin-1-yl)methyl]cyclohexyl]oxy}piperidin-1-yl)-1H-1,3-benzodiazol-1-yl]piperidine-2,6-dione], the Dmax is 49% under setting [1] and 49% under setting [2]. The DC50 is, setting by setting: under setting [3], 6200 pM; under setting [4], 6200 pM.

Under setting [1], `CC(C)Oc1ccc2[nH]nc(-c3cc(N4CCC(O[C@H]5CC[C@H](OC6CCN(c7ccc8c(c7)n(C)c(=O)n8C7CCC(=O)NC7=O)CC6)CC5)CC4)ncn3)c2c1` (single isomer, unassigned) [Compound 27, rel-3-[3-methyl-2-oxo-5-(4-{[(1r,4r)-4-[(1-{6-[5-(propan-2-yloxy)-1H-indazol-3-yl]pyrimidin-4-yl}piperidin-4-yl)oxy]cyclohexyl]oxy}piperidin-1-yl)-2,3-dihydro-1H-1,3-benzodiazol-1-yl]piperidine-2,6-dione] returned a Dmax of 57%. Also, it took 250 pM to reach half-maximal degradation under setting [3] (DC50).

For the compound `Cn1c(=O)n(C2CCC(=O)NC2=O)c2ccc(N3CCC(O[C@H]4CC[C@H](CN5CCN(c6cc(-c7n[nH]c8ccc(OC9(C)CC9)cc78)ncn6)CC5)CC4)CC3)cc21` (some centres unmarked) [Compound 6, 3-[3-methyl-2-oxo-5-(4-{[(1r,4r)-4-[(4-{6-[5-(1-methylcyclopropoxy)-1H-indazol-3-yl]pyrimidin-4-yl}piperazin-1-yl)methyl]cyclohexyl]oxy}piperidin-1-yl)-2,3-dihydro-1H-1,3-benzodiazol-1-yl]piperidine-2,6-dione], the Dmax amounted to 58% under setting [1] and 58% under setting [2]. In addition, the DC50 is 170 pM under setting [3] and 170 pM under setting [4].

Take `CC1(Oc2ccc3[nH]nc(-c4cc(N5CCC(CN6CCN(CC7CCN(c8ccc9ncn(C%10CCC(=O)NC%10=O)c9c8)CC7)CC6(C)C)CC5)ncn4)c3c2)CC1` (centres unmarked) [Compound 10, 3-{6-[4-({3,3-dimethyl-4-[(1-{6-[5-(1-methylcyclopropoxy)-1H-indazol-3-yl]pyrimidin-4-yl}piperidin-4-yl)methyl]piperazin-1-yl}methyl)piperidin-1-yl]-1H-1,3-benzodiazol-1-yl}piperidine-2,6-dione]: the greatest degradation seen (Dmax) under setting [1] worked out at 69%. This compound displayed a DC50 under setting [3] of 4500 pM.

In turn, `Cn1c(=O)n(C2CCC(=O)NC2=O)c2ccc(N3CCC(O[C@H]4CC[C@H](CN5CCN(c6cc(-c7n[nH]c8ccc([C@]9(C#N)CC9%10CC%10)cc78)ncn6)CC5)CC4)CC3)cc21` (single isomer, unassigned) [Compound 66, (1R**)-1-{3-[6-(4-{[(1r*,4r*)-4-({1-[1-(2,6-dioxopiperidin-3-yl)-3-methyl-2-oxo-2,3-dihydro-1H-1,3-benzodiazol-5-yl]piperidin-4-yl}oxy)cyclohexyl]methyl}piperazin-1-yl)pyrimidin-4-yl]-1H-indazol-5-yl}spiro[2.2]pentane-1-carbonitrile] had a Dmax under setting [1] of 61%. Further, under setting [3], half-maximal degradation (DC50) was put at 140 pM.

Turning to `Cn1c(=O)n(C2CCC(=O)NC2=O)c2ccc(N3CCC(OC[C@H]4C[C@H](OC5CCN(c6cc(-c7n[nH]c8cnc(OC9(C)CC9)cc78)ncn6)CC5)C4)CC3)cc21` (single isomer, unassigned) [Compound 32, rel-3-[3-methyl-2-oxo-5-(4-{[(1r,3r)-3-[(1-{6-[5-(1-methylcyclopropoxy)-1H-pyrazolo[3,4-c]pyridin-3-yl]pyrimidin-4-yl}piperidin-4-yl)oxy]cyclobutyl]methoxy}piperidin-1-yl)-2,3-dihydro-1H-1,3-benzodiazol-1-yl]piperidine-2,6-dione], the 50% degradation concentration (DC50) under setting [3] was found to be 330 pM. Under setting [5], the Dmax is 51%.

Compound `CC1(Oc2cc3c(-c4cc(N5CCN(C[C@H]6CC[C@H](OC7CCN(c8ccc9c(c8F)CN(C8CCC(=O)NC8=O)C9=O)CC7)CC6)CC5)ncn4)n[nH]c3cn2)CC1` (some centres unmarked) [Comparative Example 3, reference compound] registered a Dmax under setting [2] of 65%. Besides, the DC50 under setting [4] worked out at 4300 pM.

Turning to `Cn1c(=O)n(C2CCC(=O)NC2=O)c2ccc(N3CCC(O[C@H]4CC[C@H](CN5CCN(c6cc(-c7n[nH]c8ccc(C9(C#N)CC%10(CC%10)C9)cc78)ncn6)CC5)CC4)CC3)cc21` (single isomer, unassigned) [Compound 64, rel-5-{3-[6-(4-{[(1r,4r)-4-({1-[1-(2,6-dioxopiperidin-3-yl)-3-methyl-2-oxo-2,3-dihydro-1H-1,3-benzodiazol-5-yl]piperidin-4-yl}oxy)cyclohexyl]methyl}piperazin-1-yl)pyrimidin-4-yl]-1H-indazol-5-yl}spiro[2.3]hexane-5-carbonitrile], under setting [1], the maximal degradation (Dmax) turned out to be 63%. Also, under setting [3], half-maximal degradation (DC50) was put at 160 pM.

The values are drawn from patent US12589156B2, “Benzimidazole and benzimidazolone based protac compounds for the targeted degradation of leucine rich repeat kinase 2 (LRRK2)” (Arvinas Operations, Inc., priority 2023, dated 2026).
